# According to patent US6482609B1, “Isolated human EDG-4 receptor and polynucletide encoding said receptor” (priority 1997, dated 2002):
# How the values were obtained:
# Type in all cases: cell-based
# human EDG-4 = human EDG-4 (Homo sapiens, UniProt O95136); experiment: SRE luciferase reporter in 293-EBNA cells, human EDG-4; conditions: for Agonist character at EDG-4: conclusion from the reporter assay of Table 2; for Rank (EMax): rank of efficacy among compounds tested
# Procedure: (§1) NE-κB activates gene expression by binding to specific DNA sequences found in the promoters of genes regulated by this inflammation-related transcription factor. […] The SRE reporter was identical to the NF-κB reporter, except that the NF-κB binding sites were replaced with 2 SRE sites. The new reporter was called 2XSREtk-p4Luc-zeo.
# (§2) The protocol described in Example 11 for Assay 1 was followed except for the following changes:
# (§3) 2) SRE Cotransfection: 0.5 μg of 2XSREtk-p4Luc-zeo reporter DNA and 3.5 μg pcDNA3, EDG-1, EDG-3 (pC3-hE3HP2, different from the clone used in Assay 2 of Example 11) or the newly cloned human EDG-4 (pC3-hedg4#36); NF-κB Cotransfection: 2 μg 6XNFκBtk-p4Luc-zeo reporter DNA and 2.0 μg pcDNA3, EDG-1, EDG-3 (pC3-hE3HP2), or EDG-4 (pC3-hedg4#36). Expression plasmid and reporter plasmid DNA samples were combined and diluted in 750 μl of DMEM/F12 (serum free media) and 20 μl Plus Reagent (Lipofectamine Plus Kit, Life Technologies Cat. 10964-013), and incubated at room temperature for 15 min.
# (§4) 1) Media was removed and cells treated with compounds diluted in DMEM/F12 media.
# (§5) 2) The cells were treated for 6 hours.
# (§6) 3) Luciferase assay was performed.
# (§7) Transfection was accomplished using the Lipofectamine Plus kit (Life Technologies, Cat. 10964-013), using the manufacturer's recommended conditions.
# Transfection of EDG-4, expression, pretreatment and treatment of 293-EBNA cells expressing recombinant human EDG-4 was carried out essentially as described in “Example 11. […] Results were tabulated in Microsoft Excel, and analyzed with GraphPad Prism software. […] The luciferase response was expressed as fold response, after subtracting any endogenous response in pcDNA3-transfected cells at a given concentration of compound.
# rat edg4 = rat edg4 (Rattus norvegicus, UniProt P47752); experiment: NF-κB-tk-p4Luc luciferase reporter in 293-EBNA cells, rat EDG-4; design: expressed in transfected cells; host or cells: 293-EBNA
# Chain of rat edg4 (P47752 whole entry): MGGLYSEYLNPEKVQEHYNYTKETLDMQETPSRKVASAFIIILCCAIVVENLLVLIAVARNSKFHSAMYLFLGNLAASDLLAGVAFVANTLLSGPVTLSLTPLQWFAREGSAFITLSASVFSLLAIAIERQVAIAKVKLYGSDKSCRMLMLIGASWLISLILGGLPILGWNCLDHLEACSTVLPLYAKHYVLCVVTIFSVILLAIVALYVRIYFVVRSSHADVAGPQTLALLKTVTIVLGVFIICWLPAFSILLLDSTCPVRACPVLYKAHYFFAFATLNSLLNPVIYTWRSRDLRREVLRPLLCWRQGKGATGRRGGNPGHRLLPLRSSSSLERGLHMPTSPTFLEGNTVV
# Procedure: 1) 150 mm plates of 293-EBNA obtained from Invitrogen (Cat. R620-07) with a confluency of ˜80% were used for transfection.
# 3) 96.8 μl Lipofectamine (Gibco; Cat. 18324-020) was diluted in 500 μl of OPTI-MEM.
# 6) 6 ml OPTI-MEM was added to each transfection tube and this was added to a plate of 293-EBNA cells. The plates were left for 4 hrs at 37° C. in a 5% CO2 incubator.
# 2) 0.02×10^6 cells were plated per well of a 96-well Blackview plate coated with polyD-lysine. No cells were plated in the outside wells of the 96well plate. Two 96-well plates were seeded for each transfection.
# 1) Cells were washed with PBS and 140 μl serum-free media (SFM) added to each well. Plates were incubated in 37° C. incubator for 6 hrs.
# 3) 50 μl 0.5M HEPES pH 7.8 buffer (1 mM MgCl2, 1 mM CaCl2) was added to all wells of 96-well plate. Black adhesive backing (Polyfitronics) was aligned to the bottom of the viewplate.
# 4) Luclite substrate was made up by adding 10 ml substrate diluent to 1 vial lyophilized substrate. Reconstituted substrate was kept under a dark container. 50 μl substrate was added to each well.
# 1) 0.01×10^6 cells were plated per well of a 96-well Blackview plate coated with polyD-lysine. No cells were plated in the outside wells of the 96-well plate.
# human EDG-3 [1] = biological target: T1, human EDG-3 (Homo sapiens, UniProt Q99500); experiment: SRE luciferase reporter in 293-EBNA cells, EDG-3; conditions: EDG-3 clone pC3-E3HP2; 3 μM; 6 hours
# T1 construct: expressed in transfected cells; host or cells: 293-EBNA
# T1 sequence (Q99500 whole entry): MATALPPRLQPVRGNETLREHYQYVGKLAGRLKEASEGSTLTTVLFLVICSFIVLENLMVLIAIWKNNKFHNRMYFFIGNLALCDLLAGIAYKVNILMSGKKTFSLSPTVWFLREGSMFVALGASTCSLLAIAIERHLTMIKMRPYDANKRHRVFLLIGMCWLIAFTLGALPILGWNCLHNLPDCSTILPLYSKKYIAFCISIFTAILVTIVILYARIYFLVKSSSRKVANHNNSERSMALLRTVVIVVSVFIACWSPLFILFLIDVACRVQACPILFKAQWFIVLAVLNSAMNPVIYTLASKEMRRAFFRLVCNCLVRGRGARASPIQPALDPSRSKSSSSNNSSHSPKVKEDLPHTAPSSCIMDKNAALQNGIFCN
# Procedure: NE-κB activates gene expression by binding to specific DNA sequences found in the promoters of genes regulated by this inflammation-related transcription factor. […] Transient Transfection Protocol for 293-EBNA (Assay 3): The protocol described in Example 11 for Assay 1 was followed except for the following changes: […] 3) 30 μl Lipofectamine Reagent (Lipofectamine Plus Kit) was diluted in 750 μl DMEM/F12. The diluted Lipofectamine was then combined with the DNA/Plus mixture and incubated at room temperature for 15 min. […] 2) Transfected cells were harvested by trypsinization and 50,000 cells per well were plated in 96-well Blackview plates coated with poly D-lysine (Becton Dickinson Labware, Cat. 40640). No cells were plated in the outside wells of the 96-well plate. […] The following treatments were used for all transfections: […] 2) The cells were treated for 6 hours. 3) Luciferase assay was performed.
# human EDG-3 [2] = experiment: NF-κB luciferase reporter in 293-EBNA cells, EDG-3; conditions: for NF-κB response, original human EDG-3 clone: original human EDG-3 clone (pC3-hedg3)
# Procedure: (§8) 2) 3 μg NFκB-tk-p4Luc reporter DNA and 3 μg pC3-hedg1, pC3-hedg3, pC3-redg4, pC3-hedg5 or pcDNA3 DNA was diluted in 240 μl OPTI-MEM (Gibco; Cat. 31985-062)
# Transient Transfection Protocol for 293-EBNA (Assay 3):
# as §2, §3
# 3) 30 μl Lipofectamine Reagent (Lipofectamine Plus Kit) was diluted in 750 μl DMEM/F12. The diluted Lipofectamine was then combined with the DNA/Plus mixture and incubated at room temperature for 15 min.
# 6) The transfection medium was replaced with serum-free DMEM/F12 for cells transfected with 2XSREtk-p4Luc-zeo reporter DNA and with DMEM/F12 plus 10% FBS for cells tansfected with 6XNFκBtk-p4Luc-zeo reporter DNA.
# 2) Transfected cells were harvested by trypsinization and 50,000 cells per well were plated in 96-well Blackview plates coated with poly D-lysine (Becton Dickinson Labware, Cat. 40640). No cells were plated in the outside wells of the 96-well plate.
# 1) Media for cells transfected with 6XNFκBtk-p4Luc-zeo reporter DNA was replaced with DMEM/F12 plus 0.5%FBS.
# as §4, §5, §6
# [3] = tested on: 293-EBNA cells transfected with empty expression vector pcDNA3; experiment: NF-κB luciferase reporter in 293-EBNA cells, empty vector pcDNA3; conditions: for NF-κB reporter response in control cells: pcDNA3-transfected 293-EBNA; for NF-κB reporter induction in control cells: pcDNA3, 3 μM, 6 hours, Assay #3
# Procedure: Monolayer Transient Transfection Protocol for 293-EBNA
# 2) 6.6 μg NF-κB-tk-p4Luc reporter DNA and 6.6 μg of pC3-redg4 (expressing rat EDG-4), or pcDNA3 DNA was diluted in 500 μl OPTI-MEM (Gibco; Cat. 31985-062)
# 2) After 6 hrs, media was removed and cells treated with compounds diluted in 0.5% FBS media (140 μl added to each well).
# 3) Cells were treated for 24 hrs.
# 1) Luclite kit (Packard; Cat. 6016911) was used for luciferase assay. All reagents were brought to room temperature before use.
# 7) After incubation, plates were counted in a 12-detector Packard Top Count on a program without dark delay.
# The above protocol for assay 1 was followed except for the following changes:
# as §8, §3, §4, §5
# (§9) 293-EBNA cells were grown, lipofected in monolayer cultures, and pretreated as described above for Example 11, assay #1, except that NF-κB and AP-1 reporter-transfected cells were pretreated for 6 hr in medium containing 0.5% FBS, then treated overnight in the same medium with or without 10 μM LPA.
# [4] = tested on: 293-EBNA cells transfected with empty expression vector pcDNA3; experiment: SRE luciferase reporter in 293-EBNA cells, empty vector pcDNA3
# Procedure: as §1, §2, §3, §4, §5, §7, §9
# [5] = Assay #2, S1P, SPC 3 μM, 20% FBS
SMILES,Agonist character at EDG-4 (human EDG-4),Rank (EMax) (human EDG-4),"Increase in luciferase activity (NF-κB reporter) (rat edg4; pC3-redg4, 1 μM, 24 hrs) [fold]","Increase in luciferase activity (NF-κB reporter) (rat edg4; pC3-redg4, 3 μM, Assay #2) [fold]","Increase in luciferase activity (NF-κB reporter) (rat edg4; pC3-redg4, 5 μM or 10 μM, 24 hrs)",SRE response (human EDG-3 [1]) [fold],"NF-κB response, original human EDG-3 clone (human EDG-3 [2])",NF-κB reporter response in control cells ([3]; Assay #1),"NF-κB reporter response in control cells [3, 5]",NF-κB reporter induction in control cells [3],"SRE response in control cotransfection ([4]; 3 μM, 6 hours, Assay #3)","EC50 (human EDG-4; 293-EBNA expressing human EDG-4, luciferase after 6 hr, pcDNA3 response subtracted) [nM]","Induction of the SRE reporter gene (human EDG-4; pC3-hedg4#36, 3 μM SPC, 6 hr, Example 15A) [fold]","EMax (Percent) (human EDG-4; relative efficacy, 6 hr) [%]","PTX sensitivity of NF-κB reporter response (rat edg4; pC3-redg4, Assay #1)","NF-κB reporter induction (qualitative) (rat edg4; pC3-redg4, Assay #1, 24 hrs)","Induction of the NF-κB reporter gene compared to untreated controls (human EDG-3 [2]; EDG-3 clone pC3-E3HP2, 3 μM, 6 hours)","Induction of the SRE reporter, control ([4]; 3 μM SPC, 6 hr, Example 15A)"
"CCCCCCCCCCCCC/C=C/[C@@H](O)[C@@H](N)COP(=O)(O)O [S1P, sphingosine-1-phosphate]",full agonists,2,2,3.5,4-4.5 fold,12,did not produce a NF-κB response,No increase in luciferase activity,No response,No such induction,about 1.5 fold,,,,,,,
"CCCCCCCCCCCCC/C=C/[C@@H](O)[C@@H](N)COP(=O)([O-])OCC[N+](C)(C)C [SPC, sphingosylphosphorylcholine]",full agonists,1,,4,,11,did not produce a NF-κB response,,No response,No such induction,,880,26.3,100,PTX-sensitive,induced the reporter gene in EDG-4 expressing cells,about 8 fold,about 2.5 fold
